US6280773A, “Optimally stabilized microgranule comprising 5-pyrrolyl-2-pyridylmethylsulfinylbenzimidazole derivative” (IL Yang Pharm. Co., Ltd., priority 1998, dated 2001)
Read-outs that look alike come from different tables or passages of the source.

Assays:
physchem = type: physicochemical; details: for remaining at 360 h: solid, 75% relative humidity, read-out: Content of the Active Ingredient after 15 days
Experimental: . Then, the content of the active ingredient not decomposed was analyzed using a high performance liquid chromatography. The sample containing only the active ingredient without a stabilizer was used as a control.
<Conditions for High Performance Liquid Chromatography>
Column: μ-Bondapak C18 (4.6×250 mm) or the like
Detector: Absorption photometer in ultraviolet part (wavelength: 280 nm)
Mobile Phase: acetonitrile/phosphate buffer (pH 7.8)=45/55, v/v

[1] = Stability of the microgranule prepared in the presence of a binding agent; type: physicochemical; details: microgranules of Table 3
Experimental: Microgranules were prepared according to the information represented in the following Table 3 using the stabilizers in a mole ratio of 1:1 with respect to the active ingredient (IY-81149) and using hydroxypropylmethylcellulose as a binding agent. A fluidized-bed granulator (SFC-MINI, FREUND. CO., LTD., Japan) by which the contact with the ambient moisture can be excluded and preparation and dryness of the granule can be simultaneously carried out in a short time was used. That is, the active ingredient and stabilizer were introduced into a chamber of the fluidized-bed granulator in the amounts shown in Table 3. Then, the binding agent-containing solution was sprayed under the influx air temperature (65° C.) of the chamber, during which the mixture of the active ingredient and stabilizer in the chamber was maintained at a temperature of 40° C. or less. The binding agent was used in an amount of 7% by weight with respect to the granule finally obtained, and the solvent water was used in an amount to dilute the binding agent by 15 times. Also, the total amount of the active ingredient and stabilizer to be introduced into the chamber was adjusted to 300 g. The average particle diameter of the microgranule prepared by appropriately controlling the spray rate and temperature was 0.8 mm.

Row | Structure (SMILES) | stabilizing effect upon the active ingredient of the present invention (physchem) | Content of the Active Ingredient, initial (physchem; stabilizer not used (control)) [%] | Content of the Active Ingredient, initial (physchem; with Al(OH)3, mole ratio 1:1) [%] | Content of the Active Ingredient, initial (physchem; with Arginine, mole ratio 1:1) [%] | Content of the Active Ingredient, initial (physchem; with Histidine, mole ratio 1:1) [%] | Content of the Active Ingredient, initial (physchem; with K2 CO3, mole ratio 1:1) [%] | Content of the Active Ingredient, initial (physchem; with K2 HPO4, mole ratio 1:1) [%] | Content of the Active Ingredient, initial (physchem; with KHCO3, mole ratio 1:1) [%] | Content of the Active Ingredient, initial (physchem; with Lysine, mole ratio 1:1) [%] | Content of the Active Ingredient, initial (physchem; with Mg(OH)2, mole ratio 1:1) [%] | Content of the Active Ingredient, initial (physchem; with Na2 CO3, mole ratio 1:1) [%] | Content of the Active Ingredient, initial (physchem; with Na2 HPO4, mole ratio 1:1) [%] | Content of the Active Ingredient, initial (physchem; with NaHCO3, mole ratio 1:1) [%] | other results
1 | [OH][Al]([OH])[OH] [Al(OH)3, aluminum hydroxide] | much less stabilizing effect than magnesium hydroxide |  |  |  |  |  |  |  |  |  |  |  |  | 
2 | COc1ccnc(C[S+]([O-])c2nc3cc(-n4cccc4)ccc3[nH]2)c1C (centres unmarked) [IY-81149] |  | 100.1 | 99.6 | 99.2 | 100.6 | 100.5 | 100.0 | 100.3 | 100.6 | 99.8 | 99.4 | 99.2 | 98.9 | 
3 | NCCCC[C@H](N)C(=O)O [Lysine, lysine] |  |  |  |  |  |  |  |  |  |  |  |  |  | stabilizing effect upon the active ingredient of the present invention (physchem; compared with the other stabilizers (Examples 1 and 2)): much less stabilizing effect than magnesium hydroxide
4 | [Mg+2].[OH-].[OH-] [Mg(OH)2, magnesium hydroxide] | superior stabilizing effect |  |  |  |  |  |  |  |  |  |  |  |  | stabilizing effect compared with the other stabilizers [1]: superior stabilizing effect
5 | COc1ccc2[nH]c([S+]([O-])Cc3ncc(C)c(OC)c3C)nc2c1 (centres unmarked) [Omeprazole, omeprazole, reference compound] |  | 99.3 | 99.6 | 99.1 | 99.7 | 100.0 | 99.4 | 99.9 | 99.2 | 100.2 | 100.1 | 99.8 | 99.7 | order of stabilizing effect of the tested stabilizers (physchem; mole ratio 1:1, 15 days, 40° C., relative humidity of 75%): Na2 HPO4 >NaHCO3 >Mg(OH)2 >arginine>Na2CO3 >K2 HPO4 >Al(OH)3 >histidine>K2 CO3 >lysine>KHCO3; remaining at 360 h (physchem; stabilizer not used (control), 40° C., relative humidity of 75%): 26.7%; remaining at 360 h (physchem; with Al(OH)3, mole ratio 1:1, 40° C., relative humidity of 75%): 67.6%; remaining at 360 h (physchem; with Arginine, mole ratio 1:1, 40° C., relative humidity of 75%): 76%; remaining at 360 h (physchem; with Histidine, mole ratio 1:1, 40° C., relative humidity of 75%): 67.1%; remaining at 360 h (physchem; with K2 CO3, mole ratio 1:1, 40° C., relative humidity of 75%): 63.9%; remaining at 360 h (physchem; with K2 HPO4, mole ratio 1:1, 40° C., relative humidity of 75%): 70.7%; remaining at 360 h (physchem; with KHCO3, mole ratio 1:1, 40° C., relative humidity of 75%): 59.4%; remaining at 360 h (physchem; with Lysine, mole ratio 1:1, 40° C., relative humidity of 75%): 60.3%; remaining at 360 h (physchem; with Mg(OH)2, mole ratio 1:1, 40° C., relative humidity of 75%): 86.1%; remaining at 360 h (physchem; with Na2 CO3, mole ratio 1:1, 40° C., relative humidity of 75%): 75.3%; remaining at 360 h (physchem; with Na2 HPO4, mole ratio 1:1, 40° C., relative humidity of 75%): 94%; remaining at 360 h (physchem; with NaHCO3, mole ratio 1:1, 40° C., relative humidity of 75%): 87.5%
